From patent publication US6489307B1, “Antisense compositions targeted to β1-adrenoceptor-specific mRNA and methods of use” (University of Florida, priority 1998, dated 2002)

Assays:
Type in all cases: in vivo, rat (SHR)
[1] = tested on: β1-AR; test: Quantitative autoradiography of brain, heart and kidney sections
Method: (§1) Four days after injection of 1 mg/kg β1-AS-ODN (n=6) or saline (n=6), rats were killed, and tissues were removed and frozen in dry ice. Coronal sections of brain, horizontal sections of heart, and sagittal sections of kidney (20 μm) were cut on a cryostat (Microm, Thornwood, N.Y.) at ^−20° C. and mounted on microscope slides. Every seventh slide was stained with hematoxylin and eosin for histology. Tissue sections were preincubated in Krebs buffer (mmol/L: NaCl 118.4, KCl 4.7, MgSO4 1.2, CaCl2 1.27 and NaH2PO4 10.0, pH 7.1) containing 0.1 mmol/L GTP, 0.1 mmol/L ascorbic acid, and 10 μmol/L PMSF for 30 minutes at 25° C. Sections were then incubated in Krebs buffer containing 0.1 mmol/L ascorbic acid and 10 μmol/L PMSF with 100 pmol/L ICYP at 25° C. for 150 minutes in the presence of 1 μmol/L (^−) propranolol, 100 nmol/L ICI 118,551 ([…]), or 100 nmol/L CGP20712A (β1-selective antagonist) to distinguish nonspecific, β1−, and β2-bindings. Labeled sections were rinsed in the same buffer, followed by two 15-min. washes at 37° C. in the buffer, and rinsed in distilled water at 25° C. (Matthews et al., 1994). Dried sections were then exposed to x-ray films. The images were quantified with a computerized image analysis system (MCID, Imaging Research) and normalized with ^125I standards.
(§2) Four days after injection of 0.5 mg/kg β1-AS-ODN (n=6) or saline (n=6), rats were euthanized, and the right kidneys were removed and frozen in dry ice. Sagittal sections of kidney (20 μm) were cut on a cryostat (Microm) at −20° C. and mounted on microscope slides. Every seventh slide was stained with hematoxylin and eosin for histology. Receptor autoradiography was performed as described (Matthews et al., 1994) with 100 pmol/L ICYP at 25° C. for 150 min. in the presence of 1 μmol/L (−)-propranolol, […] ICI 118,551 (β2-selective antagonist), or 100 nmol/L CGP 20712A (β1-selective antagonist) to distinguish nonspecific, β1, and β2-bindings. The images were quantified with a computerized image analysis system (MCID, Imaging Research) and normalized with ^125I standards.
(§3) Four days after injection of 1 mg/kg β1-AS-ODN (n=6) or saline (n=6), rats were sacrificed and tissues were removed and frozen in dry ice. Coronal sections of brain, horizontal sections of heart and sagittal sections of kidney (20 μm) were cut on a cryostat (Microm) at −20° C. and mounted on microscope slides. Every seventh slide was stained with haematoxylin and eosin for histology. Tissue sections were preincubated in Krebs buffer (NaCl 118.4 mM, KCl 4.7 mM, MgSO4 1.2 mM, CaCl2 1.27 mM, NaH2PO4 10.0 mM, pH 7.1) containing 0.1 mM guanosine triphosphate (GTP), 0.1 mM ascorbic acid and 10 μM phenylmethylsulfonylfluoride (PMSF) for 30 min at 25° C. Sections were then incubated in Krebs buffer containing 0.1 mM ascorbic acid and 10 μM PMSF with 100 pM I-CYP at 25° C. for 150 min, in the presence of 1 μM (−)propranolol, 100 nM IC1118,551 (β2-selective antagonist) or 100 nM CGP20712A (β1-selective antagonist) to distinguish non-specific, β1- and β2-bindings. Labeled sections were rinsed in the same buffer, followed by two 15-min washes at 37° C. in the buffer and rinsed in distilled water at 25° C. (Matthews et al., 1994). Dried sections were then exposed to X-ray films (Kodak Biomax-MR). The images were quantitated with a computerized image analysis system (MCID, Imaging Research) and normalized using ^125I-standards.

[2] = tested on: β2-ARs; test: as above
Method: as §1, §2, §3

[3] = tested on: SHRs
Method: (§4) Each rat cage was placed on a receiver (RLA 1020, Data Sciences, St. Paul, Minn.) for measurement of cardiovascular parameters. Data were collected with a computer-based data acquisition program (Dataquest Lab-PRO3.0; Data Sciences). BP and HR were measured every 10 min. and averaged every 1 to 24 hrs. Before treatment, SHRs were monitored for a week to get a stable baseline.
as §4, with “(RLA1020,” for “(RLA 1020,”, “Sciences)” for “Sciences, St. Paul, Minn.)”, “LabPRO3.0;” for “Lab-PRO3.0;”, “min” for “min.”, “hr.” for “hrs.”, “SHR” for “SHRs”

[4] = tested on: β2-AR; test: β-adrenergic receptor binding assay on renal cortex membranes; settings: 0.5 mg/kg i.v.
Method: Four days after intravenous injection of saline (n=6) or 0.5 mg/kg inverted ODN (n=6) or 4, 10, 18 and 40 days after injection of 0.5 mg/kg β1-AS-ODN (n=24), animals were euthanized, and membranes were prepared from the renal cortex of the left kidneys as previously described (Baker and Pitha, 1982). For saturation studies, 100 μg membrane protein was incubated in triplicate with 6 concentrations of [^125](−)iodocyanopindolol (ICYP, NEN Life Science, 6.25 to 100 pmol/L) in a total volume of 250 μL containing 50 mmol/L Tris-HCl (pH 7.4) and 5 mmol/L MgCl2 at 36° C. for 60 min. The nonspecific and β2-adrenergic receptor binding levels were determined in the presence of 1 μmol/L (±)-alprenolol and […] CGP20712A (RBI), respectively. Then the reaction mixture was passed through a Whatman GF/B glass fiber filter with a Brandel harvester, and the bound radioactivity was counted for 1 min.

[5] = Tissue histology after repeated injections; settings: three repeated injections, more than 2 months
Text: Safety profiles including liver transaminases, hematology, immune response and tissue pathology were investigated during three repeated injections of β1-AS-ODNs for extended periods of time.
Heart, liver, spleen and kidney were subjected to pathological examination after three repeated injections of β1-AS-ODN for more than 2 months.

[6] = 4 days after i.v. administration

5′-CCGCGCCCATGCCGA-3′ (phosphorothioate backbone, further chemistry not given here) [β1-AS-ODN, 15-mer antisense ODN targeted to the AUG start codon of rat β1-AR mRNA]
overall density of β1-subtype in kidney ([1]; 4 days after 0.5 mg/kg, from 23.5±2.1): 15.4 ± 3.3 fmol/mg
β1-AR density in renal cortex ([1]; 4 days after i.v. 1 mg/kg, from 26.4±3.1): 17.4 ± 3.3 fmol/mg
β1-AR density in cardiac ventricles ([1]; 4 days after i.v. 1 mg/kg, from 30.2±2.1): 20.6 ± 2.5 fmol/mg
distribution of β-ARs in forebrain and brain stem regions [1, 6]: no detectable changes
distribution and concentration of β2-subtype in kidney ([2]; 4 days after 0.5 mg/kg): remained unchanged
β2-ARs in any tissues [2, 6]: not affected
duration of antihypertensive effect ([3]; 1 mg/kg, liposomes 1:0.5): 8 days
maximum drop in mean BP ([3]; 1 mg/kg, liposomes 1:0.5): 15 mm Hg
reflex tachycardia ([3]; rat, in vivo): no reflex tachycardia
β2-AR level in renal cortex [4]: not affected
pathological examination of heart, liver, spleen and kidney [5]: No immunopathology or organ damage
